In patent US20070299087A1, “New Compounds 319” (AstraZeneca AB, priority 2006, published 2007):

The compounds below were run against T1, human β-Secretase (sBACE-Fc) (Homo sapiens, UniProt P56817) (assay: TR-FRET assay (β-secretase enzyme, substrate (Europium)[…](Qsy7))).
T1 construct: The soluble part of the human β-Secretase (AA 1-AA 460) was cloned; Fc domain of IgG1 (C); made in house
Type: biochemical
Protocol: The enzyme used in the IGEN Cleavage-, Fluorescent-, TR-FRET- and BiaCore assays is described as follows:
The soluble part of the human β-Secretase (AA 1-AA 460) was cloned into the ASP2-Fc10-1-IRES-GFP-neoK mammalian expression vector. The gene was fused to the Fc domain of IgG1 (affinity tag) and stably cloned into HEK 293 cells. Purified sBACE-Fc is stored in Tris buffer, pH 9.2 and has a purity of 95%.
Enzyme was diluted to 6 μg/mL and the substrate (Europium)[…](Qsy7) to 200 nM in reaction buffer (NaAcetate, chaps, triton x-100, EDTA pH 4.5). Compounds were diluted to the desired concentration in dimethyl sulfoxide (final dimethyl sulfoxide concentration in assay is 5%). The assay was done in a Costar 384 well round bottom, low volume, non-binding surface plate (Corning #3676). Enzyme (9 μL) and 1 μL of compound in dimethyl sulfoxide was added to the plate, mixed and pre-incubated for 10 min. Substrate (10 μL) was added and the reaction proceeded in the dark for 15 min at RT. The reaction was stopped with the addition of 7 μL NaAcetate, pH 9. The fluorescence of the product was measured on a Victor II plate reader with an excitation wavelength of 340 nm and an emission wavelength of 615 nm. […] The dimethyl sulfoxide control defined the 100% activity level and 0% activity was defined by exclusion of the enzyme (using reaction buffer instead).

T1 sequence (P56817 22-460): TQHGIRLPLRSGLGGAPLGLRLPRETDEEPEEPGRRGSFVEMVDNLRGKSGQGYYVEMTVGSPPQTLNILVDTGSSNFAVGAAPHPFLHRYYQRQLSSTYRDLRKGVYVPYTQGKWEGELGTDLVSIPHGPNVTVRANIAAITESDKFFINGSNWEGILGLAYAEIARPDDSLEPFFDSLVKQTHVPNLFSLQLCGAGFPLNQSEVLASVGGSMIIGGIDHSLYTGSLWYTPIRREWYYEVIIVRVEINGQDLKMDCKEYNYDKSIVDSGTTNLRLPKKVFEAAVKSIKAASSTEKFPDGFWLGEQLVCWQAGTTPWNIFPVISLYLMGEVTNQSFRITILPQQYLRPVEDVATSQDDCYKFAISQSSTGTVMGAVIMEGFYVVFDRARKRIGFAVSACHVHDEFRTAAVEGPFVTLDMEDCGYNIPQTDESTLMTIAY

| SMILES | IC50 [µM] |
| --- | --- |
| COc1cccc(-c2cccc(C3(c4ccncc4)N=C(N)N4CC(F)(F)CN=C43)c2)c1 (stereo not shown) [Example 72, 3,3-Difluoro-8-(3′-methoxybiphenyl-3-yl)-8-pyridin-4-yl-2,3,4,8-tetrahydroimidazo[1,5-a]pyrimidin-6-amine 1.25 acetate] | 0.068 |
| NC1=NC(c2ccncc2)(c2cccc(-c3cc(Cl)cnc3F)c2)C2=NCC(F)(F)CN12 (stereo not shown) [Example 73, 3,3-Difluoro-8-[3-(5-Chloro-2-fluoropyridin-3-yl)phenyl]-8-pyridin-4-yl-2,3,4,8-tetrahydroimidazo[1,5-a]pyrimidin-6-amine acetate] | 0.061 |
| NC1=NC(c2ccncc2)(c2ccc(F)c(-c3cccnc3F)c2)C2=NCC(F)(F)CN12 (stereo not shown) [Example 81, 3,3-Difluoro-8-[4-fluoro-3-(2-fluoropyridin-3-yl)phenyl]-8-pyridin-4-yl-2,3,4,8-tetrahydroimidazo[1,5-a]pyrimidin-6-amine acetate] | 0.049 |
| COc1cccc(-c2cc(C3(c4ccncc4)N=C(N)N4CC(F)(F)CN=C43)ccc2F)c1F (stereo not shown) [Example 82, 3,3-Difluoro-8-(2′,6-difluoro-3′-methoxybiphenyl-3-yl)-8-pyridin-4-yl-2,3,4,8-tetrahydroimidazo[1,5-a]pyrimidin-6-amine acetate] | 0.042 |
| COc1cncc(-c2cc(C3(c4ccncc4)N=C(N)N4CC(F)(F)CN=C43)ccc2F)c1 (stereo not shown) [Example 83, 3,3-Difluoro-8-[4-fluoro-3-(5-methoxypyridin-3-yl)phenyl]-8-pyridin-4-yl-2,3,4,8-tetrahydroimidazo[1,5-a]pyrimidin-6-amine 0.5 acetate] | 0.048 |

The next lines start with the values.

| IC50 [µM] | SMILES |
| --- | --- |
| 0.29 | NC1=NC(c2cccc(-c3cccnc3F)c2)(c2ccncc2F)C2=NCC(F)(F)CN12 (stereo not shown) [Example 90, 3,3-Difluoro-8-(3-fluoropyridin-4-yl)-8-[3-(2-fluoropyridin-3-yl)phenyl]-2,3,4,8-tetrahydroimidazo[1,5-a]pyrimidin-6-amine] |
| 0.44 | NC1=NC(c2cccc(-c3cncnc3)c2)(c2ccncc2F)C2=NCC(F)(F)CN12 (stereo not shown) [Example 91, 3,3-Difluoro-8-(3-fluoropyridin-4-yl)-8-(3-pyrimidin-5-ylphenyl)-2,3,4,8-tetrahydroimidazo[1,5-a]pyrimidin-6-amine] |
